Results: ChEMBL document CHEMBL4321845, “Discovery and Characterization of Potent Pan-Genotypic HCV NS5A Inhibitors Containing Novel Tricyclic Central Core Leading to Clinical Candidate” (J Med Chem, 2019)

Experiments:
[1] = target: T1, Nonstructural protein 5A (Hepatitis C virus) (UniProt Q5L478); assay: Inhibition of NS5A in HCV genotype 1b infected in human HuH7.5/Con1/SG-Neo(I)-hRluc2aUb cells assessed as inhibition of replicon levels at 0.1 uM incubated for 72 hrs by luciferase reporter gene assay relative to control; conditions: Hepatitis C virus subtype 1b
T1 sequence (whole entry): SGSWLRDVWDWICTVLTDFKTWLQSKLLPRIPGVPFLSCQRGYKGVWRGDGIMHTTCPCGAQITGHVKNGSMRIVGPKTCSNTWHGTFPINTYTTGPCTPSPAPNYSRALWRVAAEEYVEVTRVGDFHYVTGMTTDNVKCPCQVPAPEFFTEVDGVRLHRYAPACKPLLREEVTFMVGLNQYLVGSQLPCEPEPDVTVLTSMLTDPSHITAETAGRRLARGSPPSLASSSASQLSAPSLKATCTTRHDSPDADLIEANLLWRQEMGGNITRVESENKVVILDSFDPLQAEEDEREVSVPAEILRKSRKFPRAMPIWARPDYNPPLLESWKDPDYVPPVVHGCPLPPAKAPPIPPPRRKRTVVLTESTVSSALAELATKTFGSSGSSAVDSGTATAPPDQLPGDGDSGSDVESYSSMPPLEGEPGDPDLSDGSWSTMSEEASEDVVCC

[2] = target: T1, Nonstructural protein 5A (Hepatitis C virus); assay: Inhibition of NS5A in HCV genotype 2a infected in human Huh7.5/J6/JFH1/EMCVIRES/hRlucNeo cells assessed as inhibition of replicon levels at 1 uM incubated for 72 hrs by luciferase reporter gene assay; conditions: Hepatitis C virus subtype 2a
[3] = target: T1, Nonstructural protein 5A (Hepatitis C virus); assay: Inhibition of NS5A in HCV genotype 1b infected in human HuH7.5/Con1/SG-Neo(I)-hRluc2aUb cells assessed as inhibition of replicon levels at 1 uM incubated for 72 hrs by luciferase reporter gene assay relative to control; conditions: Hepatitis C virus subtype 1b
[4] = Drug metabolism in rat liver microsomes assessed as metabolic rate at 1 uM preincubated for 5 mins before NADPH addition and measured up to 30 mins by LC-MS/MS analysis; format: ADME, Microsome; conditions: 0.5 h
[5] = Drug metabolism in human liver microsomes assessed as metabolic rate at 1 uM preincubated for 5 mins before NADPH addition and measured up to 30 mins by LC-MS/MS analysis; format: ADME, Microsome; conditions: 0.5 h
[6] = target: CYP2D6 (Homo sapiens, UniProt P10635); assay: Inhibition of CYP2D6 in pooled human liver microsomes at 10 uM pre-incubated for 5 mins before NADPH addition and measured after 10 mins by UPLC-MS/MS analysis relative to control; format: ADME
[7] = target: CYP2C9 (Homo sapiens, UniProt P11712); assay: Inhibition of CYP2C9 in pooled human liver microsomes at 10 uM pre-incubated for 5 mins before NADPH addition and measured after 10 mins by UPLC-MS/MS analysis relative to control; format: ADME
[8] = target: CYP3A4 (Homo sapiens, UniProt P08684); assay: Inhibition of CYP3A4 in pooled human liver microsomes at 10 uM pre-incubated for 5 mins before NADPH addition and measured after 10 mins by UPLC-MS/MS analysis relative to control; format: ADME
[9] = Cytotoxicity in human HuH7 cells assessed as inhibition of cell growth at 3 uM incubated for 72 hrs by CCK8 assay relative to control; format: cell-based, Huh-7; conditions: read-out: GI
[10] = Cytotoxicity in human HepG2 cells assessed as inhibition of cell growth at 3 uM incubated for 72 hrs by CCK8 assay relative to control; format: cell-based; conditions: read-out: GI
[11] = Cytotoxicity in human HepG2 cells assessed as inhibition of cell growth at 10 uM incubated for 72 hrs by CCK8 assay relative to control; format: cell-based; conditions: read-out: GI
[12] = Cytotoxicity in human HEK293 cells assessed as inhibition of cell growth at 3 uM incubated for 72 hrs by CCK8 assay relative to control; format: cell-based; conditions: read-out: GI
[13] = Cytotoxicity in human HEK293 cells assessed as inhibition of cell growth at 10 uM incubated for 72 hrs by CCK8 assay relative to control; format: cell-based; conditions: read-out: GI
[14] = AUC(last) in rat at 1 mg/kg, iv measured up to 24 hrs by LC-MS/MS analysis; format: ADME, organism-based; design: dose 1 mg/kg, route intravenous, time 0 - last; conditions: in vivo
[15] = Half life in rat at 1 mg/kg, iv measured up to 24 hrs by LC-MS/MS analysis; format: ADME, organism-based; conditions: in vivo
[16] = Clearance in rat at 1 mg/kg, iv measured up to 24 hrs by LC-MS/MS analysis; format: ADME, organism-based; conditions: in vivo
[17] = Volume of distribution at steady state in rat at 1 mg/kg, iv measured up to 24 hrs by LC-MS/MS analysis; format: ADME, organism-based; conditions: in vivo, read-out: Vdss
[18] = Cmax in rat at 10 mg/kg, po measured up to 24 hrs by LC-MS/MS analysis; format: ADME, organism-based; design: dose 10 mg/kg, route oral; conditions: in vivo
[19] = AUC (last) in rat at 10 mg/kg, po measured up to 24 hrs by LC-MS/MS analysis; format: ADME, organism-based; design: dose 10 mg/kg, time 0 - last, route oral; conditions: in vivo
[20] = Oral bioavailability in rat at 10 mg/kg measured up to 24 hrs by LC-MS/MS analysis; format: ADME, organism-based; conditions: in vivo
[21] = Drug level in liver of Wistar rat at 10 mg/kg, po measured at 4 hrs by LC-MS/MS analysis; format: ADME, organism-based; conditions: read-out: Drug uptake
[22] = Drug level in plasma of Wistar rat at 10 mg/kg, po measured at 4 hrs by LC-MS/MS analysis; format: ADME, organism-based
[23] = Ratio of dug level in liver to plasma of Wistar rat at 10 mg/kg, po measured at 4 hrs by LC-MS/MS analysis; format: ADME, organism-based
[24] = Drug level in liver of Wistar rat at 10 mg/kg, po measured up to 8 hrs by LC-MS/MS analysis; format: ADME, organism-based; conditions: in vivo
[25] = Protein binding in rat plasma; format: ADME, cell-free; conditions: read-out: PPB
[26] = Protein binding in human plasma; format: ADME, cell-free; conditions: read-out: PPB
[27] = Tmax in rat at 10 mg/kg, po measured up to 24 hrs by LC-MS/MS analysis; format: ADME, organism-based; conditions: in vivo
[28] = Tmax in rat at 30 mg/kg, po measured up to 24 hrs by LC-MS/MS analysis; format: ADME, organism-based; conditions: in vivo
[29] = Tmax in rat at 100 mg/kg, po measured up to 24 hrs by LC-MS/MS analysis; format: ADME, organism-based; conditions: in vivo
[30] = Cmax in rat at 30 mg/kg, po measured up to 24 hrs by LC-MS/MS analysis; format: ADME, organism-based; design: dose 30 mg/kg, route oral; conditions: in vivo
[31] = Cmax in rat at 100 mg/kg, po measured up to 24 hrs by LC-MS/MS analysis; format: ADME, organism-based; design: dose 100 mg/kg, route oral; conditions: in vivo
[32] = Cmax in beagle dog at 10 mg/kg, po measured up to 24 hrs by LC-MS/MS analysis; format: ADME, organism-based, Canis lupus familiaris; design: dose 10 mg/kg, route oral; conditions: in vivo
[33] = AUC (last) in rat at 30 mg/kg, po measured up to 24 hrs by LC-MS/MS analysis; format: ADME, organism-based; design: dose 30 mg/kg, time 0 - last, route oral; conditions: in vivo
[34] = AUC (last) in rat at 100 mg/kg, po measured up to 24 hrs by LC-MS/MS analysis; format: ADME, organism-based; design: dose 100 mg/kg, time 0 - last, route oral; conditions: in vivo
[35] = AUC (last) in beagle dog at 10 mg/kg, po measured up to 24 hrs by LC-MS/MS analysis; format: ADME, organism-based, Canis lupus familiaris; design: dose 10 mg/kg, time 0 - last, route oral; conditions: in vivo
[36] = AUC(last) in beagle dog at 1 mg/kg, iv measured up to 24 hrs by LC-MS/MS analysis; format: ADME, organism-based, Canis lupus familiaris; design: dose 1 mg/kg, route intravenous, time 0 - last; conditions: in vivo
[37] = Half life in beagle dog at 1 mg/kg, iv measured up to 24 hrs by LC-MS/MS analysis; format: ADME, organism-based, Canis lupus familiaris; conditions: in vivo
[38] = Clearance in beagle dog at 1 mg/kg, iv measured up to 24 hrs by LC-MS/MS analysis; format: ADME, organism-based, Canis lupus familiaris; conditions: in vivo
[39] = Volume of distribution at steady state in beagle dog at 1 mg/kg, iv measured up to 24 hrs by LC-MS/MS analysis; format: ADME, organism-based, Canis lupus familiaris; conditions: in vivo, read-out: Vdss
[40] = Oral bioavailability in beagle dog at 10 mg/kg measured up to 24 hrs by LC-MS/MS analysis; format: ADME, organism-based, Canis lupus familiaris; conditions: in vivo

Chain of CYP2C9 (P11712 whole entry): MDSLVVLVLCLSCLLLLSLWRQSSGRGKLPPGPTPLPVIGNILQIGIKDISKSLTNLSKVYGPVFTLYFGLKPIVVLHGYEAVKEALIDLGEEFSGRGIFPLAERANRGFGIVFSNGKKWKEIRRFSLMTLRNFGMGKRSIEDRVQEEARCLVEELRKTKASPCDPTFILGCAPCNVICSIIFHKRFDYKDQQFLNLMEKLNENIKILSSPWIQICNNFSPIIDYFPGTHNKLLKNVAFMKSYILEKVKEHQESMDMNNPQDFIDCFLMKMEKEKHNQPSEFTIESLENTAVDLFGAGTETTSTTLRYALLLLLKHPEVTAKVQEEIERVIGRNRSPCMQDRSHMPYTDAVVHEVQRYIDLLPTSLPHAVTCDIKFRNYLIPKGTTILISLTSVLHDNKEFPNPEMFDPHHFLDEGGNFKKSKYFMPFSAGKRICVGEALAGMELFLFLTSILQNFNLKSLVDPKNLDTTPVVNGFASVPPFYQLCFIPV
Chain of CYP3A4 (P08684 whole entry): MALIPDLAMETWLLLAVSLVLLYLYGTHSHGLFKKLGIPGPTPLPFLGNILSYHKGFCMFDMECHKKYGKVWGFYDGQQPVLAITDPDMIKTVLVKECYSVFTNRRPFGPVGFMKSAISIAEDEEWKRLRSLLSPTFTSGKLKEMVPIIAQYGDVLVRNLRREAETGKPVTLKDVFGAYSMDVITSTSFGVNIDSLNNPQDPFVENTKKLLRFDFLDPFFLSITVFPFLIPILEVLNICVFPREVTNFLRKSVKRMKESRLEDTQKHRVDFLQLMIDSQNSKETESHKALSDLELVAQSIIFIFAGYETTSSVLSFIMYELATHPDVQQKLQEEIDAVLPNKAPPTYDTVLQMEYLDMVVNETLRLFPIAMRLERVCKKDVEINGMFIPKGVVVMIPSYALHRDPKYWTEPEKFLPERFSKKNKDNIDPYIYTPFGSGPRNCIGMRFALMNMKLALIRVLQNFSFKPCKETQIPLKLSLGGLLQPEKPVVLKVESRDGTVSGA
Chain of CYP2D6 (P10635 whole entry): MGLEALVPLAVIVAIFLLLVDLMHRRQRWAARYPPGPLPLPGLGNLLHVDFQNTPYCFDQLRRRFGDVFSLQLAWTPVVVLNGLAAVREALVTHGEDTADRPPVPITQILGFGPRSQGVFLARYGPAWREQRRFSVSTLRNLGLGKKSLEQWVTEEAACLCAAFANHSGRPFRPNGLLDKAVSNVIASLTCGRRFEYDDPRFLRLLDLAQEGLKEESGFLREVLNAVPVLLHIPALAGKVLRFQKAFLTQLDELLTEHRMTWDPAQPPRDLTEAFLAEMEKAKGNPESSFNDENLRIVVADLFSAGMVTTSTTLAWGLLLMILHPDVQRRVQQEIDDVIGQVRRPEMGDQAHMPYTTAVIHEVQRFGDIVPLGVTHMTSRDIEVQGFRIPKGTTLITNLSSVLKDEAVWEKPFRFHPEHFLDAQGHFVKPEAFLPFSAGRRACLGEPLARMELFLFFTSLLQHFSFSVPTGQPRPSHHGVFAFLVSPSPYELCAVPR

Row | SMILES | inhibition [2] [%] | Drug metabolism [4] [nmol/min/mg] | Drug metabolism [5] [nmol/min/mg] | inhibition at 10 min, 10 µM [6] [%] | inhibition at 10 min, 10 µM [7] [%] | inhibition at 10 min, 10 µM [8] [%] | inhibition at 72 h, 3 µM [9] [%] | inhibition at 72 h, 3 µM [10] [%] | inhibition at 72 h, 10 µM [11] [%] | inhibition at 72 h, 3 µM [12] [%] | inhibition at 72 h, 10 µM [13] [%] | AUC(0-t) at 24 h [14] [µM·h] | half-life [15] [h] | clearance [16] [mL/min/kg] | Vd [17] [L/kg] | Cmax [18] [nM] | AUC(0-t) at 24 h [19] [µM·h] | bioavailability [20] [%] | concentration at 4 h [21] [nM] | concentration at 4 h [22] [nM] | also measured
1 | COC(=O)N[C@H](C(=O)N1CCC[C@H]1c1ncc(-c2ccc3c(c2)CC2c4ccc(-c5cnc([C@@H]6CCCN6C(=O)[C@@H](NC(=O)OC)C(C)C)[nH]5)cc4CC32)[nH]1)C(C)C (some centres undefined) | 11 |  |  |  |  |  |  |  |  |  |  |  |  |  |  |  |  |  |  |  | inhibition [1]: 75%
2 | COC(=O)N[C@H](C(=O)N1CCC[C@H]1c1ncc(-c2cc3c(cc2OC)C2(CC3(C)C)CC(C)(C)c3cc(-c4cnc([C@@H]5CCCN5C(=O)[C@@H](NC(=O)OC)C(C)C)[nH]4)c(OC)cc32)[nH]1)C(C)C | 13 |  |  |  |  |  |  |  |  |  |  |  |  |  |  |  |  |  |  |  | inhibition [3]: 79%
3 | COC(=O)N[C@H](C(=O)N1CCC[C@H]1c1ncc(-c2ccc3c(ccc4sc(-c5cnc([C@@H]6CCCN6C(=O)[C@@H](NC(=O)OC)C(C)C)[nH]5)nc43)c2)[nH]1)C(C)C | 0 |  |  |  |  |  |  |  |  |  |  |  |  |  |  |  |  |  |  |  | 
4 | COC(=O)N[C@H](C(=O)N1CCC[C@H]1c1ncc(-c2ccc3c(c2)OCC(C)(C)COc2cc(-c4cnc([C@@H]5CCCN5C(=O)[C@@H](NC(=O)OC)C(C)C)[nH]4)ccc2-3)[nH]1)C(C)C |  | 0.01 | 0.02 | 17 | 0 | 0 | 4 | 8 | 35 | 17 | 33 | 1.1 | 2.1 | 17 | 2.3 | 1900 | 5.2 | 47 | 7600 | 620 | Kp at 4 h [23]: 13; Drug uptake [24]: Active
5 | COC(=O)N[C@H](C(=O)N1CCC[C@H]1c1nc(Cl)c(-c2ccc3c(c2)OCC(C)(C)COc2cc(-c4[nH]c([C@@H]5CCCN5C(=O)[C@@H](NC(=O)OC)C(C)C)nc4Cl)ccc2-3)[nH]1)C(C)C |  | 0 | 0 | 6 | 29 | 6 | 25 | 23 | 27 | 44 | 63 | 0.43 | 3.8 | 37 | 10 | 500 | 2.4 | 56 | 7100 | 640 | Kp at 4 h [23]: 11; fraction unbound [25]: < 0.01; fraction unbound [26]: < 0.01; Drug uptake [24]: Active
6 | COC(=O)N[C@H](C(=O)N1CCC[C@H]1c1ncc(-c2ccc3c(c2)OCc2cc(-c4cnc([C@@H]5CCCN5C(=O)[C@@H](NC(=O)OC)C(C)C)[nH]4)sc2-3)[nH]1)C(C)C |  | 0.01 | 0.02 | 13 | 41 | 22 | 3 | 0 | 16 | 14 | 22 | 2 | 1.9 | 10 | 1.5 | 300 to 2000 | 2 to 6 | 30 | 7900 | 1390 | Kp at 4 h [23]: 5.5; Drug uptake [24]: Active; Tmax [27]: 2 to 4 h; Tmax [28]: 4 to 6 h; Tmax [29]: 2 to 6 h; Cmax [30]: 2000 nM; Cmax [31]: 7000 nM; Cmax [32]: 3000 nM; AUC(0-t) at 24 h [33]: 28 µM·h; AUC(0-t) at 24 h [34]: 76 µM·h; AUC(0-t) at 24 h [35]: 40 µM·h; AUC(0-t) at 24 h [36]: 3 µM·h; half-life [37]: 3 h; clearance [38]: 7 mL/min/kg; Vd [39]: 2 L/kg; bioavailability [40]: 100%
